# Test results: patent US20140066365A1, “USE OF CALIXARENES ASSOCIATED WITH AN ANTIBIOTIC IN THE TREATMENT OF BACTERIAL INFECTIONS” (priority 2011, published 2014)
# Where “and” joins values, the source holds several entries; their conditions need not be identical. Identical values can stand only once. Like-named read-outs stand apart in the source and are kept apart here.
# What was measured:
# [1] = test system: MRSA strain having a resistance to the aminoglycosides, fluoroquinolones, macrolides-lincosamides-synergistins and ofloxacin (SaR4); experiment: MIC of the compounds used alone, microdilution in a liquid medium (CLSI); assay type: cell-based, Staphylococcus aureus; details: SaR4
# Excerpt: (§1) The MICs of the antibiotics were previously defined for each strain, by the method of microdilution in a liquid medium (CLSI (Clinical and Laboratory Standards Institute), 2003).
# [2] = test system: MRSA strain having a resistance to the aminoglycosides and fluoroquinolones (SaR3); experiment: as above; assay type: cell-based, Staphylococcus aureus; details: SaR3
# Excerpt: as §1
# [3] = test system: MRSA strain without associated resistance (SaR1); experiment: as above; assay type: cell-based, Staphylococcus aureus; details: SaR1
# Excerpt: as §1
# [4] = test system: Pseudomonas aeruginosa strain PaR2; experiment: microbe, parasite or virus in culture; assay type: cell-based
# Excerpt: as §1
# [5] = test system: Pseudomonas aeruginosa strain PaR3; experiment: MIC of the compounds used alone, microdilution in a liquid medium (CLSI); assay type: cell-based
# Excerpt: as §1
# [6] = test system: Escherichia coli strain ATCC 25922 (wild type); experiment: as above; assay type: cell-based; details: E. coli ATCC 25922
# Excerpt: as §1
# [7] = test system: Staphylococcus aureus strain ATCC 29213 (wild type); experiment: as above; assay type: cell-based; details: S. aureus ATCC 29213
# Excerpt: as §1
# [8] = test system: mucoid strain of Pseudomonas aeruginosa PaR5; experiment: as above; assay type: cell-based
# Excerpt: as §1
# [9] = test system: cephalosporinase-hyperproducing strain of Escherichia coli (EcR2); experiment: as above; assay type: cell-based; details: Cx1 alone (first value of cell)
# Excerpt: as §1
# [10] = test system: penicillinase-producing strain of Escherichia coli without associated resistance (EcR1); experiment: as above; assay type: cell-based; details: Cx1 alone (first value of cell)
# Excerpt: as §1
# [11] = test system: Pseudomonas aeruginosa strain ATCC 27853 (wild type); experiment: as above; assay type: cell-based; details: P. aeruginosa ATCC 27853
# Excerpt: as §1
# [12] = test system: ESBL-producing strain of Escherichia coli, having an associated resistance to the aminoglycosides (EcR3); experiment: as above; assay type: cell-based; details: Cx1 alone (first value of cell)
# Excerpt: as §1
# [13] = test system: SaR1: Meticillin-Resistant Staphylococcus aureus without Associated Resistance; experiment: Antibiogram, inhibition diameter (Table D1); assay type: cell-based; details: for Results: from diameter, against Dmin Dmax
# Protocol: (§2) The bacterial and antibiogramidentification is carried out by the VITEK 2 system (bioMérieux)
# [14] = test system: SaR3: Meticillin-Resistant Staphylococcus aureus; experiment: Antibiogram by the disk diffusion technique; assay type: cell-based; details: for CA-SFM Interpretation: Cd CA-SFM 2011; for Diameter: Table E1; for Results: Table E1, against Dmin Dmax; for diameter in mm: Table E2
# Protocol: (§3) The bacterial and antibiogramidentification is carried out by the VITEK 2 system (bioMérieux) and by the disk diffusion technique
# [15] = test system: PaR5: Pseudomonas aeruginosa; experiment: Antibiogram by the disk diffusion technique; assay type: cell-based
# Protocol: as §3
# [16] = test system: PaR2: Pseudomonas aeruginosa; assay type: cell-based
# Protocol: as §3
# [17] = test system: SaR1: Meticillin-Resistant Staphylococcus aureus without Associated Resistance; experiment: Antibiogram, MIC by the VITEK 2 system; assay type: cell-based; details: SaR1; for CA-SFM Interpretation: Cc CA-SFM 2011; for EUCAST Interpretation: Cc EUCAST 2011; for Results: from MIC
# Protocol: as §2
# [18] = test system: SaR4: Meticillin-Resistant Staphylococcus aureus; experiment: Antibiogram, MIC by the VITEK 2 system; assay type: cell-based; details: SaR4; for CA-SFM Interpretation: Cc CA-SFM 2011; for EUCAST Interpretation: Cc EUCAST 2011; for MIC: Staphylococcus aureus, read-out: MIC
# Protocol: as §3
# [19] = test system: EcR1: Penicillinase-Producing Escherichia coli without Associated Resistance; experiment: Antibiogram by the disk diffusion technique; assay type: cell-based
# Protocol: 5.1 EcR1: Penicillinase-Producing Escherichia coli without Associated Resistance The bacterial and antibiogramidentification is carried out by the VITEK 2 system (bioMérieux) and by the disk diffusion technique.
# [20] = MIC of the compounds used alone, microdilution in a liquid medium (CLSI); assay type: cell-based, Staphylococcus aureus; details: Staphylococcus aureus, MRSA; antibiotic alone (second value of cell); SaR4; read-out: MIC
# Excerpt: as §1
# [21] = test system: EcR3: ESBL-Producing Escherichia coli; experiment: Antibiogram by the disk diffusion technique; assay type: cell-based
# Protocol: The bacterial and antibiogramidentification is carried out by the VITEK 2 system (bioMerieux) and by the disk diffusion technique
# [22] = test system: Escherichia coli, Staphylococcus aureus and Pseudomonas aeruginosa strains; experiment: Chessboard technique, summary statements over all strains and combinations tested; assay type: cell-based; details: strain not stated
# Excerpt: 1.3. Procedure: Chessboard Technique
# The same procedure is followed for the Cx1. […] Thus 64 ATB/Cx1 combinations are obtained.
# The FIC (Fractional Inhibitory Concentration Index) value is defined by the following formula: […]
# When FIC≦0.5, there is a synergistic effect between antibiotic A and antibiotic B.
# When 0.5<FIC≦1, there is an additive effect between antibiotic A and antibiotic B.
# When 1<FIC≦4, there is an indifferent effect between antibiotic A and antibiotic B.
# When FIC>4, there is an antagonistic effect between antibiotic A and antibiotic B.
# For each strain and each antibiotic/Cx1 combination, the experiments were repeated a minimum of 3 times.
# [23] = Cx1 alone (first value of cell)
# [24] = Staphylococcus aureus, MRSA, antibiotic alone (second value of cell), read-out: MIC
# [25] = Pseudomonas aeruginosa, antibiotic alone (second value of cell), read-out: MIC
# [26] = antibiotic alone (second value of cell)
compound,measurement,setting,value
para-guanidinoethylcalix[4]arene [Cx1],MIC,[1]; [23],8 µg/mL
same,MIC,[2]; [23],8 µg/mL
same,MIC mg/L,[2]; [23],8/8 mg/L
same,MIC,[3]; [23],8 µg/mL
same,MIC,[4]; [23],32 µg/mL
same,MIC,[5]; [23],32 µg/mL
same,MIC mg/L,[5]; [23],32/32 mg/L
same,Initial MICs,[6]; [23],4 mg/L and 2 mg/L
same,Initial MICs (mg/L),[6]; [23],4/4 mg/L
same,"Initial MICs (mg/L), Cx1",[6]; Cx1 alone,4 mg/L
same,Initial MICs,[7]; [23],8 mg/L
same,Initial MICs (mg/L),[7]; [23],8/8 mg/L
same,"Initial MICs (mg/L), Cx1",[7]; Cx1 alone,8 mg/L
same,MIC,[8]; [23],32 µg/mL
same,MIC mg/L,[8]; [23],32/32 mg/L
same,Initial MICs,[9],2 mg/L
same,Initial MICs (mg/L),[9],2/2 mg/L
same,Initial MICs,[10],2 mg/L
same,MIC,[11]; [23],32 µg/mL
same,"Initial MICs (mg/L), Cx1",[11]; Cx1 alone,32/32 mg/L and 32 mg/L
same,Initial MICs,[12],2 mg/L
same,Initial MICs (mg/L),[12],2/2 mg/L
C[C@@H]1O[C@@H]1P(=O)(O)O [Fosfomycin],Diameter,[13],40 mm
same,Results,[13],Susceptible
same,CA-SFM Interpretation,[14],Susceptible
same,Diameter,[14],26 mm
same,Results,[14],Susceptible
same,diameter in mm,[14],26 mm
same,Diameter,"[15]; PaR5, Table I1",30 mm
same,Results,"[15]; PaR5, Table I1, against Dmin-Dmax",Susceptible
same,diameter in mm,"[15]; disk diffusion inhibition diameter, strain PaR5",30 mm
same,CA-SFM Interpretation,"[15]; disk diffusion, PaR5, versus critical diameter CA-SFM 2011",Susceptible
same,CA-SFM Interpretation,[16]; Cd CA-SFM 2011,Resistant
same,Diameter,[16]; Table G1,13 mm
same,Results,"[16]; Table G1, against Dmin-Dmax",Resistant
same,diameter in mm,[16]; Table G2,13 mm
same,CA-SFM Interpretation,[17],Susceptible
same,EUCAST Interpretation,[17],Susceptible
same,Results,[17]; Table D1,Susceptible
same,MIC mg/L,[17]; Table D2,≦8 mg/L
same,MIC,"[17]; Staphylococcus aureus, Table D1, read-out: MIC",≤ 8 µg/mL
same,Results,"[18]; Table F1, MIC",Resistant
same,CA-SFM Interpretation,[18]; from MIC,Resistant
same,EUCAST Interpretation,[18]; from MIC,Resistant
same,MIC,[18]; Table F1,≥ 64 µg/mL
same,MIC,"[18]; Table F2, MIC",≥ 64 µg/mL
same,MIC mg/L (diameter in mm),"[19]; EcR1, cells that print a diameter, Table A2",24 mm
same,CA-SFM Interpretation,"[19]; EcR1, diameter against CA-SFM 2011 limits",Susceptible
same,CLSI Interpretation,"[19]; EcR1, diameter against CLSI 2011 limits",Susceptible
same,Diameter,"[19]; EcR1, disk diffusion, Table A1",24 mm
same,Results,"[19]; EcR1, interpretation of the diameter against Dmin Dmax, Table A1",Susceptible
same,MIC,[20],128 µg/mL
same,MIC,[2]; [24],16 µg/mL
same,MIC,[3]; [24],2 µg/mL
same,CA-SFM Interpretation,[21]; Cd CA-SFM 2011,Susceptible
same,CLSI Interpretation,[21]; Cd CLSI 2011,Susceptible
same,Diameter,[21]; Table C1,23 mm
same,Results,"[21]; Table C1, against Dmin Dmax",Susceptible
same,diameter in mm,[21]; Table C2,23 mm
same,MIC,[4]; [25],64 µg/mL
same,MIC,[5]; [25],> 64 µg/mL
same,MIC,"[7]; Staphylococcus aureus, ATCC29213, antibiotic alone (second value of cell), read-out: Initial MICs",8 µg/mL
same,MIC,[8]; [25],16 µg/mL
same,MIC,"[11]; Pseudomonas aeruginosa, ATCC27853, antibiotic alone (second value of cell), read-out: MIC",16 µg/mL
same,interaction between the antibiotic and Cx1,[22],synergism
CC1(C)S[C@@H]2[C@H](NC(=O)Cc3ccccc3)C(=O)N2[C@H]1C(=O)O [Penicillin G],Diameter,[13],28 mm
same,Results,[13],Resistant
same,CA-SFM Interpretation,[14],Resistant
same,CLSI Interpretation,[14]; Cd CLSI 2011,Resistant
same,EUCAST Interpretation,[14]; Cd EUCAST 2011,Resistant
same,Diameter,[14],26 mm
same,Results,[14],Resistant
same,diameter in mm,[14],26 mm
same,CA-SFM Interpretation,[17],Resistant
same,CLSI Interpretation,[17]; Cc CLSI 2011,Resistant
same,EUCAST Interpretation,[17],Resistant
same,MIC mg/L,[17]; Table D1,≧0.5 mg/L
same,Results,[17]; Table D1,Resistant
same,MIC mg/L,[17]; Table D2,≧0.5 mg/L
same,Results,"[18]; Table F1, MIC",Resistant
same,CA-SFM Interpretation,[18]; from MIC,Resistant
same,CLSI Interpretation,"[18]; from MIC, Cc CLSI 2011",Resistant
same,EUCAST Interpretation,[18]; from MIC,Resistant
same,MIC,[1]; [26],4 µg/mL
same,MIC,[2]; [26],0.5 µg/mL
same,MIC,[3]; [26],0.5 µg/mL
same,Initial MICs,[7]; [26],1 mg/L
